Experimental data taken from patent US20040077674A1, “Mappicine analogs, intermediates in the synthesis of mappicine analogs and methods of synthesis of mappicine analogs” (priority 2002, published 2004).

Assays:
[1] = target: T1, RNA-dependent DNA polymerase activity of HIV reverse transcriptase (Human immunodeficiency virus type 1 group M subtype B, UniProt P03366); assay: RNA-dependent DNA polymerase activity assay of HIV reverse transcriptase; assay type: biochemical, HIV-1; conditions: 10 μM inhibitor concentration, activity in presence / in absence of analog x 100
T1 construct: made in house
Description: In separate representative assays, mappicine analogs were tested for their ability to inhibit the RNA-dependent DNA polymerase activity of HIV reverse transcriptase and for their ability to inhibit the RNase H activity of HIV reverse transcriptase. The assay for RNA-dependent DNA polymerase activity is discussed in Borkow, G. et al., “Inhibition of the Ribonuclease H and DNA Polymerase Activities of HIV-1 Reverse Transcriptase by N-(4-tert-Butylbenzoyl)-2-hydroxy-1-naphthaldehyde Hydrazone,” Biochemistry 1997, 36, 3179-3185, a copy of which is attached hereto and the disclosure of which is incorporated herein by reference. Assays were carried out in the absence and in the presence of mappicine analogs (10 μM final concentration). The results are reported as % residual activity, which is the RNA-dependent DNA polymerase activity of the enzyme in the presence of the mappicine analog divided by the RNA-dependent activity of the enzyme in the absence of the mappicine analog, multiplied by 100.

[2] = target: T2, RNase H activity of HIV reverse transcriptase (Human immunodeficiency virus type 1 group M subtype B, UniProt P03366); assay: Fluorescence (FRET)-based RNase H assay of HIV reverse transcriptase; assay type: biochemical, HIV-1; conditions: 10 μM inhibitor concentration, activity in presence / in absence of analog x 100
T2 construct: 2.5 nM of the p51/p66 RT heterodimer in the assay; made in house
Description: Recently, a fluorescence-based assay to perform screens in search of HIV RNase H inhibitors has been developed. The assay, which is carried out in 96-well microplates and is adaptable to robotics, is the first high-throughput screen for RNase H and is described in further detail in the Experimental section. HIV-1 RT and human RNase H were cloned, and thus comparative analysis of inhibitor action could be conducted simultaneously.
The assay for RNase H activity of HIV reverse transcriptase was the fluorescence-based assay described in detail in the Experimental section and discussed in U.S. Provisional Patent Application Serial No. 60/318,359. Assays were carried out in the absence and in the presence of mappicine analogs (10 μM or 20 μM final concentration). The results are reported as % residual activity, which is the RNase H activity of the enzyme in the presence of the mappicine analog divided by the RNase H activity of the enzyme in the absence of the mappicine analog, multiplied by 100. Alternatively, the results are reported as % inhibition, which is calculated as the ratio of the RNase H activity of the enzyme in the presence of the mappicine analog to the enzyme activity in the absence of the mappicine analog, multiplied by 100, and then subtracting this number from 100.
Assay for Ribonuclease H Activity Based on Fluorescence Resonance Energy Transfer (FRET)
Preparation of the Fluorophore-RNA/Quencher-DNA Hybrid Duplex Substrate.
The RNA/DNA hybrid duplex substrate for use in the assay comprises an RNA oligonucleotide of sequence 5′-GAU CUG AGC CUG GGA GCU-3′, modified at the 3′-end with Aminolink-2 and derivatized with fluorescein isothiocyanate, to provide a modified RNA oligonucleotide of the sequence 5′-GAU CUG AGC CUG GGA GCU-fluorescein-3′, annealed to a complementary DNA oligonucleotide of the sequence 5′-AGC TCC CAG GCT CAG ATC-3′ modified at the 5′-end with Aminolink-2 and derivatized with the FRET acceptor DABCYL succinimidyl ester, to provide a modified DNA oligonucleotide of the sequence 5′-DABCYL-AGC TCC CAG GCT CAG ATC-3′.
To prepare the 3′-fluorescein-RNA/5′-DABCYL-DNA hybrid duplex substrate, a known amount of 3′-fluorescein-RNA was dissolved in 20 mM Tris buffer (pH 8.0, 37° C.) to provide a final concentration of 5 μM. Two equivalents of the 5′-DABCYL-DNA oligonucleotide were added, and the mixture was heated to 90° C. for 5 min and cooled slowly to room temperature to allow duplex formation. The positioning of the fluorescein donor at the 3′-end of the RNA oligonucleotide and the DABCYL acceptor at the 5′-end of the DNA oligonucleotide provides a very close proximity of the donor and acceptor that results in a very intense quenching of the fluorescein emission in the intact RNA/DNA hybrid duplex substrate due to the spectral overlap of the fluorescence emission of fluorescein with the absorption spectrum of DABCYL. In addition, DABCYL is non-fluorescent, and thus cannot contribute any light emission. Both of these factors result in a very low background and provide a high signal-to-noise in the assay measurements. The ratio of the donor fluorescence in the absence and in the presence of its quencher is approximately fifteen-fold.
Microplate Assay Protocol for the Measurement of RNase H Activity Using the RNA/IDNA Hybrid Duplex Substrate.
Reaction assay mixtures contained 5 μl of a stock solution of 2.5 μM RNA/DNA hybrid duplex substrate added to 85 μl of assay buffer (50 mM Tris, pH 8.0, 37° C., containing 60 mM KCl and 2.5 mM MgCl2), prepared in the wells of a 96-well fluorescence microtiter plate, and warmed to 37° C. using the temperature control of the SpectraMax Gemini XS microplate spectrofluorometer (Molecular Devices). Reactions were started by the addition of 5 μl of a solution of recombinant HIV-1 reverse transcriptase (usually providing a final concentration of 2.5 nM of the p51/p66 RT heterodimer in the assay), and mixing using the automatic mixing function of the microplate spectrofluorometer. […]

SMILES: COc1ccc2nc3c(c(-c4ccccc4)c2c1)Cn1c-3cc(C(=O)Cc2ccccc2)c(C)c1=O [5 (3Dεκ)]
- Residual activity (%) Polymerase [1]: 73%
- Residual activity (%) RNase H [2]: 88%

SMILES: CCC(O)c1cc2n(c(=O)c1C)Cc1c-2nc2ccccc2c1[Si](C)(C)C(C)(C)C (stereo not drawn) [5 (4Aα)]
- Residual activity (%) Polymerase [1]: 67%
- Residual activity (%) RNase H [2]: 104%

SMILES: CCC(=O)c1cc2n(c(=O)c1C)Cc1c-2nc2ccccc2c1[Si](C)(C)C(C)(C)C [5 (4Aακ)]
- Residual activity (%) Polymerase [1]: 43%
- Residual activity (%) RNase H [2]: 76%

SMILES: Cc1c(C(O)C(C)(C)C)cc2n(c1=O)Cc1c-2nc2ccccc2c1[Si](C)(C)C(C)(C)C (stereo not drawn) [5 (4Aβ)]
- Residual activity (%) Polymerase [1]: 71%
- Residual activity (%) RNase H [2]: 101%

SMILES: Cc1c(C(=O)C(C)(C)C)cc2n(c1=O)Cc1c-2nc2ccccc2c1[Si](C)(C)C(C)(C)C [5 (4Aβκ)]
- Residual activity (%) Polymerase [1]: 79%
- Residual activity (%) RNase H [2]: 70%

SMILES: Cc1c(C(O)CCC2CCCCC2)cc2n(c1=O)Cc1c-2nc2ccccc2c1[Si](C)(C)C(C)(C)C (stereo not drawn) [5 (4Aδ)]
- Residual activity (%) Polymerase [1]: 45%
- Residual activity (%) RNase H [2]: 95%

SMILES: Cc1c(C(=O)CCC2CCCCC2)cc2n(c1=O)Cc1c-2nc2ccccc2c1[Si](C)(C)C(C)(C)C [5 (4Aδκ)]
- Residual activity (%) Polymerase [1]: 39%
- Residual activity (%) RNase H [2]: 102%

SMILES: Cc1c(C(O)Cc2ccccc2)cc2n(c1=O)Cc1c-2nc2ccccc2c1[Si](C)(C)C(C)(C)C (stereo not drawn) [5 (4Aε)]
- Residual activity (%) Polymerase [1]: 83%
- Residual activity (%) RNase H [2]: 93%

SMILES: CCC(O)c1cc2n(c(=O)c1C)Cc1c-2nc2ccc(F)cc2c1[Si](C)(C)C(C)(C)C (stereo not drawn) [5 (4Bα)]
- Residual activity (%) Polymerase [1]: 98%
- Residual activity (%) RNase H [2]: 108%

SMILES: CCC(=O)c1cc2n(c(=O)c1C)Cc1c-2nc2ccc(F)cc2c1[Si](C)(C)C(C)(C)C [5 (4Bακ)]
- Residual activity (%) Polymerase [1]: 42%
- Residual activity (%) RNase H [2]: 77%

SMILES: Cc1c(C(O)C(C)(C)C)cc2n(c1=O)Cc1c-2nc2ccc(F)cc2c1[Si](C)(C)C(C)(C)C (stereo not drawn) [5 (4Bβ)]
- Residual activity (%) Polymerase [1]: 49%
- Residual activity (%) RNase H [2]: 113%

SMILES: Cc1c(C(=O)C(C)(C)C)cc2n(c1=O)Cc1c-2nc2ccc(F)cc2c1[Si](C)(C)C(C)(C)C [5 (4Bβκ)]
- Residual activity (%) Polymerase [1]: 82%
- Residual activity (%) RNase H [2]: 79%

SMILES: Cc1c(C(O)CCC2CCCCC2)cc2n(c1=O)Cc1c-2nc2ccc(F)cc2c1[Si](C)(C)C(C)(C)C (stereo not drawn) [5 (4Bδ)]
- Residual activity (%) Polymerase [1]: 44%
- Residual activity (%) RNase H [2]: 90%

SMILES: Cc1c(C(=O)CCC2CCCCC2)cc2n(c1=O)Cc1c-2nc2ccc(F)cc2c1[Si](C)(C)C(C)(C)C [5 (4Bδκ)]
- Residual activity (%) Polymerase [1]: 56%
- Residual activity (%) RNase H [2]: 96%

SMILES: Cc1c(C(O)Cc2ccccc2)cc2n(c1=O)Cc1c-2nc2ccc(F)cc2c1[Si](C)(C)C(C)(C)C (stereo not drawn) [5 (4Bε)]
- Residual activity (%) Polymerase [1]: 61%
- Residual activity (%) RNase H [2]: 89%

SMILES: CCC(O)c1cc2n(c(=O)c1C)Cc1c-2nc2ccc(C)cc2c1[Si](C)(C)C(C)(C)C (stereo not drawn) [5 (4Cα)]
- Residual activity (%) Polymerase [1]: 94%
- Residual activity (%) RNase H [2]: 91%

SMILES: CCC(=O)c1cc2n(c(=O)c1C)Cc1c-2nc2ccc(C)cc2c1[Si](C)(C)C(C)(C)C [5 (4Cακ)]
- Residual activity (%) Polymerase [1]: 52%
- Residual activity (%) RNase H [2]: 90%

SMILES: Cc1ccc2nc3c(c([Si](C)(C)C(C)(C)C)c2c1)Cn1c-3cc(C(O)C(C)(C)C)c(C)c1=O (stereo not drawn) [5 (4Cβ)]
- Residual activity (%) Polymerase [1]: 67%
- Residual activity (%) RNase H [2]: 94%

SMILES: Cc1ccc2nc3c(c([Si](C)(C)C(C)(C)C)c2c1)Cn1c-3cc(C(=O)C(C)(C)C)c(C)c1=O [5 (4Cβκ)]
- Residual activity (%) Polymerase [1]: 67%
- Residual activity (%) RNase H [2]: 65%

SMILES: Cc1ccc2nc3c(c([Si](C)(C)C(C)(C)C)c2c1)Cn1c-3cc(C(O)CCC2CCCCC2)c(C)c1=O (stereo not drawn) [5 (4Cδ)]
- Residual activity (%) Polymerase [1]: 61%
- Residual activity (%) RNase H [2]: 109%

SMILES: Cc1ccc2nc3c(c([Si](C)(C)C(C)(C)C)c2c1)Cn1c-3cc(C(=O)CCC2CCCCC2)c(C)c1=O [5 (4Cδκ)]
- Residual activity (%) Polymerase [1]: 52%
- Residual activity (%) RNase H [2]: 96%

SMILES: CCC(O)c1cc2n(c(=O)c1C)Cc1c-2nc2ccc(OC)cc2c1[Si](C)(C)C(C)(C)C (stereo not drawn) [5 (4Dα)]
- Residual activity (%) Polymerase [1]: 77%
- Residual activity (%) RNase H [2]: 79%

SMILES: CCC(=O)c1cc2n(c(=O)c1C)Cc1c-2nc2ccc(OC)cc2c1[Si](C)(C)C(C)(C)C [5 (4Dακ)]
- Residual activity (%) Polymerase [1]: 80%
- Residual activity (%) RNase H [2]: 77%

SMILES: COc1ccc2nc3c(c([Si](C)(C)C(C)(C)C)c2c1)Cn1c-3cc(C(O)C(C)(C)C)c(C)c1=O (stereo not drawn) [5 (4Dβ)]
- Residual activity (%) Polymerase [1]: 47%
- Residual activity (%) RNase H [2]: 91%

SMILES: COc1ccc2nc3c(c([Si](C)(C)C(C)(C)C)c2c1)Cn1c-3cc(C(=O)C(C)(C)C)c(C)c1=O [5 (4Dβκ)]
- Residual activity (%) Polymerase [1]: 64%
- Residual activity (%) RNase H [2]: 97%

SMILES: COc1ccc2nc3c(c([Si](C)(C)C(C)(C)C)c2c1)Cn1c-3cc(C(O)CCC2CCCCC2)c(C)c1=O (stereo not drawn) [5 (4Dδ)]
- Residual activity (%) Polymerase [1]: 51%
- Residual activity (%) RNase H [2]: 87%

SMILES: COc1ccc2nc3c(c([Si](C)(C)C(C)(C)C)c2c1)Cn1c-3cc(C(=O)CCC2CCCCC2)c(C)c1=O [5 (4Dδκ)]
- Residual activity (%) Polymerase [1]: 50%
- Residual activity (%) RNase H [2]: 83%

SMILES: COc1ccc2nc3c(c([Si](C)(C)C(C)(C)C)c2c1)Cn1c-3cc(C(O)Cc2ccccc2)c(C)c1=O (stereo not drawn) [5 (4Dε)]
- Residual activity (%) Polymerase [1]: 49%
- Residual activity (%) RNase H [2]: 76%

SMILES: CCC(O)c1cc2n(c(=O)c1C)Cc1c-2nc2ccccc2c1[Si](C)(C)C (stereo not drawn) [5 (5Aα)]
- Residual activity (%) Polymerase ([1]; 10 µM): 32%
- Residual activity (%) RNase H ([2]; 10 µM): 93%

SMILES: CCC(=O)c1cc2n(c(=O)c1C)Cc1c-2nc2ccccc2c1[Si](C)(C)C [5 (5Aακ)]
- Residual activity (%) Polymerase [1]: 91%
- Residual activity (%) RNase H [2]: 103%
